Assay results from patent US20150216955A1, “IMMUNOMODULATORY AGENT AND USES THEREFOR” (The University of Queensland, priority 2012, published 2015).
Where a SMILES comes first, the peptide text is derived from it. Where no end group is shown, it is not given here. [ ]: non-standard residue; d: D form. Cit = NC(=O)NCCC[C@H](N)C(=O)O

Columns and labels:
[1] = test system: antigen-presenting cells (APC); assay: Pre-incubation of APC with NF-kB, mTOR or Syk inhibitors; T cell cytokine production in response to citrullinated aggrecan peptide; type: cell-based, human; details: APC pre-incubated 1 h with inhibitor, then LPS; 5 days with CD4+ T cells and 3 or 30 μg/mL Aggrecan peptide 84-103 cit 93
Protocol: Peripheral blood mononuclear cells (PBMC) were extracted from an RA patient with disease duration 18 years, positive anti-CCP and HLA-DRB1*0401 shared epitope. Autologous CD4+ T cells were isolated using immunomagnetic beads. The non-T cell fraction consists of antigen-presenting cells (APC), including dendritic cells, monocytes and B cells; it was treated with Mitomycin C to prevent proliferation. The APC were pre-incubated for 1 h without or with 3 uM BAY7011-82, 20 μg/mL Curcumin (both inhibit NF-kB), 10 ng/mL Rapamycin (inhibits mTOR) or […] Piceatannol (inhibits syk), then incubated with 100 ng/mL LPS for 1 h. The APC were washed 3 times then incubated for 5 days with CD4+ T cells in the presence of 0 μg/mL, 3 μg/mL or 30 μg/mL Aggrecan peptide 84-103 cit 93. Cytokines were analysed in culture supernatants by cytokine bead array.

[2] = Solubility of peptide in aqueous medium; type: physicochemical
[3] = test system: PBMC; assay: Cytokine secretion in day 5 supernatants by Cytometric Bead Array (CBA) after peptide stimulation; type: cell-based, human; details: for cytokine responses to the epitope: current studies, fibrinogen: long-standing RA patients; for number of RA patients with positive IL-6 response to this epitope only: of 17 RA patients, threshold mean + 2 SD above native peptide response
[4] = test system: CD4+ T cells; assay: Flow cytometry and intracellular cytokine staining after peptide stimulation; type: cell-based, human
Protocol: FIG. 6 is a graphical representation showing cytokine secretion by CD4^+ T cell subsets. PBMC from HLA-DR SE^+ RA patients and healthy controls were incubated with 0 or 30 μg/ml citrullinated fibrinogen or citrullinated aggrecan, stained with mAb directed against CD4, CD28, IFN-γ and IL-6 (A), or CD4, CD45RO, IL-6 and IFN-γ (E) then analyzed by flow cytometry. B: The gating strategy is outlined. C: Fluorescence minus one (FMO) plot showing background staining for intracellular cytokine staining, gated on CD4^+ T cells. D: IL-6 staining of gated CD4^− non-T cells. The proportions in (E) of IL-6^+CD4^+CD45RO^+ T cells were 2.2%, 5.3% and 7.1%, and of IL-6^+CD4^+CD45RO^− T cells were 0.8%, 2.1% and 4% in response to incubation with no peptide, citrullinated fibrinogen and citrullinated aggrecan respectively. Two individual RA patients and 1 healthy control are shown. Data are representative of 2 healthy donors and 5 RA patients.
IL-6 is an important cytokine in RA, which could be produced upon stimulation of PBMC either by T cells or antigen presenting cells. To determine the origin of the cytokines secreted into supernatants of PBMC stimulated by citrullinated peptides, RA PBMC were incubated with citrullinated or native peptides for 5 days, with addition of Brefeldin-A for the last 18 hours, prior to intracellular cytokine staining along with analysis of cell surface markers. CD3^+CD4^+ T cells produced more intra-cellular IFN-γ and IL-6 when incubated with citrullinated aggrecan or fibrinogen relative to incubation in medium alone (FIG. 6A, B). […] In healthy controls, CD28^− cells comprised only a small proportion of the CD4^+ T cells, and cytokine-secreting cells were exclusively CD4^+CD28^+. CD28^− cells were more abundant among CD4^+ PB T cells in some, but not all, RA patients. Where CD4^+CD28^− T cells were present, IL-6 and IFN-γ were secreted by both CD28^− and CD28^+CD4^+ T cells in response to citrullinated peptides. […] IFN-γ^+CD4^+ and IL-6^+CD4^+ T cells included both CD45RO^+ and CD45RO^− cells (FIG. 6E).
PBMC from SE^+ RA patients or healthy controls were incubated with or without peptides at concentrations of 3 and 30 μg/mL for 5 days, with Brefeldin A (Sigma Aldrich) added for the final 18 hours. Cells were stained for CD3-FITC, CD4-APC/Cy7, CD28-FITC, CXCR5-PerCP/Cy5.5 and CD45RO-PerCP/Cy5.5 (Biolegend), followed by permeabilization and staining for intracellular IL-6-APC and IFN-γ-APC (Biolegend). Data were collected on the Gallios flow cytometer and analysed using Kaluza software (Beckman Coulter).

[5] = test system: PBMC or SFMC; type: cell-based, human
[6] = RA PBMC, 5 days, Brefeldin-A last 18 hours

Cc1ccc(S(=O)(=O)/C=C/C#N)cc1 [Bay11-7082, E3((4-methylphenyl)-sulfonyl)-2-propenenitrile]
capacity of APC presenting cit-peptide to induce T cell IL-6 production [1]: partially suppressed

CC(C)C[C@H](NC(=O)[C@H](CC(C)C)NC(=O)[C@@H](NC(=O)[C@@H](N)C(C)C)C(C)C)C(=O)N[C@H](C(=O)N[C@@H](C)C(=O)N[C@H](C(=O)N[C@@H](CCC(=O)O)C(=O)NCC(=O)N[C@@H](CCCNC(N)=O)C(=O)N[C@H](C(=O)N[C@@H](CCCNC(=N)N)C(=O)N[C@H](C(=O)N[C@@H](CC(N)=O)C(=O)N[C@@H](CO)C(=O)N[C@@H](C)C(=O)N[C@@H](Cc1ccc(O)cc1)C(=O)N[C@@H](CCC(N)=O)C(=O)N[C@@H](CC(=O)O)C(=O)N[C@@H](CCCCN)C(=O)O)C(C)C)C(C)C)[C@@H](C)O)C(C)C [citrullinated aggrecan, VVLLVATEGCitVRVNSAYQDK] (HELM PEPTIDE1{V.V.L.L.V.A.T.E.G.[Cit].V.R.V.N.S.A.Y.Q.D.K}$$$$V2.0; N-terminus and C-terminus assumed)
solubility in aqueous medium [2]: relatively insoluble in aqueous medium

QDFIN[Cit]INKLKNS [citrullinated fibrinogen]
healthy controls whose PBMC dose-dependently secreted IL-6 ([3]; 6 SE+ healthy controls): 3/6
cytokine responses to the epitope [3]: robust cytokine production
number of RA patients with positive IL-6 response to this epitope only [3]: 0
proportion of IL-6+CD4+CD45RO- T cells ([4]; 30 μg/ml peptide, no peptide 0.8%): 2.1%
proportion of IL-6+CD4+CD45RO+ T cells ([4]; 30 μg/ml peptide, no peptide 2.2%): 5.3%
intra-cellular IFN-γ in CD3+CD4+ T cells relative to medium alone [4, 6]: more
intra-cellular IL-6 in CD3+CD4+ T cells relative to medium alone [4, 6]: more

QYM[Cit]ADQAAGGLR [citrullinated collagen type II]
number of RA patients with positive IL-6 response to this epitope only [3]: 0

SAVRA[Cit]SSVPGVR [citrullinated vimentin 66-78]
cytokine responses to the epitope [3]: much weaker cytokine responses

tetanus toxoid
Proliferative responses to tetanus toxoid, RA compared with healthy control PBMC [5]: significantly lower
